# Measured values: patent US6737383B1, “Herbicidal oxadiazolidines” (priority 1999, dated 2004)
# Assays:
# wild oat = assay: Test B pre/postemergence wild oat; format: in vivo, Avena fatua
# In short: (§1)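 Test chemicals in a non-phytotoxic solvent mixture with surfactant were sprayed preemergence onto planted seeds and postemergence onto plants 2 to 18 cm tall (1- to 4-leaf stage). After twelve to sixteen days in a greenhouse, injury was visually rated against untreated controls from 0 (no effect) to 10 (complete control).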
# sugar beet = assay: Test B pre/postemergence sugar beet; format: in vivo, Beta vulgaris
# In short: as §1
# bedstraw = assay: Test B pre/postemergence bedstraw; format: in vivo, Galium aparine
# In short: as §1
# soybean = assay: Test B pre/postemergence soybean; format: in vivo, Glycine max
# In short: as §1
# wheat = assay: Test B pre/postemergence wheat; format: in vivo, Triticum aestivum
# In short: as §1
# velvetleaf = assay: Test B pre/postemergence velvetleaf; format: in vivo, Abutilon theophrasti
# In short: as §1
# rape = assay: Test B pre/postemergence rape; format: in vivo, Brassica napus
# In short: as §1
# pigweed = assay: Test B pre/postemergence pigweed; format: in vivo, Amaranthus retroflexus
# In short: as §1
# blackgrass = assay: Test B pre/postemergence blackgrass; format: in vivo, Alopecurus myosuroides
# In short: as §1
# giant foxtail = assay: Test B pre/postemergence giant foxtail; format: in vivo, Setaria faberii
# In short: as §1
# morningglory = assay: Test B pre/postemergence morningglory; format: in vivo, Ipomoea hederacea
# In short: as §1
# purple nutsedge = assay: Test B pre/postemergence purple nutsedge; format: in vivo, Cyperus rotundus
# In short: as §1
# [1] = Preemergence, Rate 62 g/ha, scale of 0 to 10 where 0 is no effect and 10 is complete control
# [2] = Preemergence, Rate 125 g/ha, 0 is no effect, 10 is complete control
# [3] = Preemergence, Rate 250 g/ha, scale 0 to 10, 0 is no effect, 10 is complete control
# [4] = Preemergence, Rate 500 g/ha, scale 0 to 10 (0 no effect, 10 complete control)
# [5] = Rate 250 g/ha, Postemergence, scale 0 to 10, 0 is no effect, 10 is complete control
# [6] = Rate 500 g/ha, Postemergence, scale 0 to 10
# [7] = Postemergence, Rate 125 g/ha, scale of 0 to 10 where 0 is no effect and 10 is complete control
# [8] = Rate 62 g/ha, Postemergence, scale of 0 to 10 where 0 is no effect and 10 is complete control
compound,measurement,setting,value
CC1CCCCC1n1c(=O)on(C(=O)N(c2ccccc2)C(C)C)c1=O (stereo not drawn) [Compound 162],Wild oats plant response rating,wild oat; [1],0
same,Wild oats plant response rating (0 to 10 scale),wild oat; [2],0
same,Wild oats plant response rating,wild oat; [3],2
same,Wild oats plant response rating,wild oat; [4],5
same,"Plant response rating, Wild oats",wild oat; [5],0
same,Wild oats plant response rating,wild oat; [6],4
same,Sugarbeets plant response rating,sugar beet; [7],0
same,Sugarbeets plant response rating,sugar beet; [1],0
same,Sugarbeets plant response rating (0 to 10 scale),sugar beet; [2],0
same,Sugarbeets plant response rating,sugar beet; [3],0
same,Sugarbeets plant response rating,sugar beet; [4],0
same,Sugarbeets plant response rating,sugar beet; [8],0
same,"Plant response rating, Sugarbeets",sugar beet; [5],0
same,Sugarbeets plant response rating,sugar beet; [6],0
same,Bedstraw plant response rating,bedstraw; [7],2
same,Bedstraw plant response rating,bedstraw; [1],0
same,Bedstraw plant response rating (0 to 10 scale),bedstraw; [2],0
same,Bedstraw plant response rating,bedstraw; [3],0
same,Bedstraw plant response rating,bedstraw; [4],0
same,Bedstraw plant response rating,bedstraw; [8],0
same,"Plant response rating, Bedstraw",bedstraw; [5],3
same,Bedstraw plant response rating,bedstraw; [6],6
same,Soybean plant response rating,soybean; [7],4
same,Soybean plant response rating,soybean; [1],0
same,Soybean plant response rating (0 to 10 scale),soybean; [2],0
same,Soybean plant response rating,soybean; [3],0
same,Soybean plant response rating,soybean; [4],0
same,Soybean plant response rating,soybean; [8],3
same,"Plant response rating, Soybean",soybean; [5],4
same,Soybean plant response rating,soybean; [6],4
same,Wheat plant response rating,wheat; [1],0
same,Wheat plant response rating (0 to 10 scale),wheat; [2],0
same,Wheat plant response rating,wheat; [3],0
same,Wheat plant response rating,wheat; [4],0
same,"Plant response rating, Wheat",wheat; [5],0
same,Wheat plant response rating,wheat; [6],0
same,Velvetleaf plant response rating,velvetleaf; [1],0
same,Velvetleaf plant response rating (0 to 10 scale),velvetleaf; [2],0
same,Velvetleaf plant response rating,velvetleaf; [3],0
same,Velvetleaf plant response rating,velvetleaf; [4],0
same,"Plant response rating, Velvetleaf",velvetleaf; [5],4
same,Velvetleaf plant response rating,velvetleaf; [6],4
same,Rape plant response rating,rape; [7],0
same,Rape plant response rating,rape; [1],0
same,Rape plant response rating (0 to 10 scale),rape; [2],2
same,Rape plant response rating,rape; [3],4
same,Rape plant response rating,rape; [4],9
same,Rape plant response rating,rape; [8],0
same,"Plant response rating, Rape",rape; [5],0
same,Rape plant response rating,rape; [6],0
same,Redroot pigweed plant response rating,pigweed; [7],0
same,Redroot pigweed plant response rating,pigweed; [1],0
same,Redroot pigweed plant response rating (0 to 10 scale),pigweed; [2],0
same,Redroot pigweed plant response rating,pigweed; [3],0
same,Redroot pigweed plant response rating,pigweed; [4],7
same,Redroot pigweed plant response rating,pigweed; [8],0
same,"Plant response rating, Redroot pigweed",pigweed; [5],0
same,Redroot pigweed plant response rating,pigweed; [6],0
same,Blackgrass plant response rating,blackgrass; [7],0
same,Blackgrass plant response rating,blackgrass; [1],0
same,Blackgrass plant response rating (0 to 10 scale),blackgrass; [2],2
same,Blackgrass plant response rating,blackgrass; [3],2
same,Blackgrass plant response rating,blackgrass; [4],3
same,Blackgrass plant response rating,blackgrass; [8],0
same,"Plant response rating, Blackgrass",blackgrass; [5],0
same,Blackgrass plant response rating,blackgrass; [6],6
same,Giant foxtail plant response rating,giant foxtail; [7],2
same,Giant foxtail plant response rating,giant foxtail; [1],7
same,Giant foxtail plant response rating (0 to 10 scale),giant foxtail; [2],7
same,Giant foxtail plant response rating,giant foxtail; [3],9
same,Giant foxtail plant response rating,giant foxtail; [4],9
same,Giant foxtail plant response rating,giant foxtail; [8],0
same,"Plant response rating, Giant foxtail",giant foxtail; [5],2
same,Giant foxtail plant response rating,giant foxtail; [6],3
same,Morningglory plant response rating,morningglory; [7],6
same,Morningglory plant response rating,morningglory; [1],0
same,Morningglory plant response rating (0 to 10 scale),morningglory; [2],0
same,Morningglory plant response rating,morningglory; [3],0
same,Morningglory plant response rating,morningglory; [4],0
same,Morningglory plant response rating,morningglory; [8],6
same,"Plant response rating, Morningglory",morningglory; [5],10
same,Morningglory plant response rating,morningglory; [6],10
same,Nutsedge plant response rating,purple nutsedge; [7],0
same,Nutsedge plant response rating,purple nutsedge; [1],0
same,Nutsedge plant response rating (0 to 10 scale),purple nutsedge; [2],0
same,Nutsedge plant response rating,purple nutsedge; [3],0
same,Nutsedge plant response rating,purple nutsedge; [4],0
same,Nutsedge plant response rating,purple nutsedge; [8],0
same,"Plant response rating, Nutsedge",purple nutsedge; [5],0
same,Nutsedge plant response rating,purple nutsedge; [6],2
